In patent US11993599B2, “Therapeutic compounds” (Genentech, Inc., priority 2021, dated 2024):

Tests used:
Type in all cases: cell-based
[1] = target: T1, BRG1 (Homo sapiens, UniProt P51532); experiment: Immunofluorescence assay for BRG1 degradation in SW1573 cells; conditions: 20 hours incubation; for DC50: immunofluorescence mean nuclear signal, read-out: BRG1 IF Degradation IC50; for Dmax: SW1573, 20 h, normalized to a known degrader control, read-out: BRG1 IF Degradation Sinf (%)
T1 construct: either BRM primary antibody (Cell signaling Cat #11966) or BRG primary antibody (Abcam, ab 110641); endogenous in cells; host or cells: SW1573
T1 sequence (P51532 whole entry): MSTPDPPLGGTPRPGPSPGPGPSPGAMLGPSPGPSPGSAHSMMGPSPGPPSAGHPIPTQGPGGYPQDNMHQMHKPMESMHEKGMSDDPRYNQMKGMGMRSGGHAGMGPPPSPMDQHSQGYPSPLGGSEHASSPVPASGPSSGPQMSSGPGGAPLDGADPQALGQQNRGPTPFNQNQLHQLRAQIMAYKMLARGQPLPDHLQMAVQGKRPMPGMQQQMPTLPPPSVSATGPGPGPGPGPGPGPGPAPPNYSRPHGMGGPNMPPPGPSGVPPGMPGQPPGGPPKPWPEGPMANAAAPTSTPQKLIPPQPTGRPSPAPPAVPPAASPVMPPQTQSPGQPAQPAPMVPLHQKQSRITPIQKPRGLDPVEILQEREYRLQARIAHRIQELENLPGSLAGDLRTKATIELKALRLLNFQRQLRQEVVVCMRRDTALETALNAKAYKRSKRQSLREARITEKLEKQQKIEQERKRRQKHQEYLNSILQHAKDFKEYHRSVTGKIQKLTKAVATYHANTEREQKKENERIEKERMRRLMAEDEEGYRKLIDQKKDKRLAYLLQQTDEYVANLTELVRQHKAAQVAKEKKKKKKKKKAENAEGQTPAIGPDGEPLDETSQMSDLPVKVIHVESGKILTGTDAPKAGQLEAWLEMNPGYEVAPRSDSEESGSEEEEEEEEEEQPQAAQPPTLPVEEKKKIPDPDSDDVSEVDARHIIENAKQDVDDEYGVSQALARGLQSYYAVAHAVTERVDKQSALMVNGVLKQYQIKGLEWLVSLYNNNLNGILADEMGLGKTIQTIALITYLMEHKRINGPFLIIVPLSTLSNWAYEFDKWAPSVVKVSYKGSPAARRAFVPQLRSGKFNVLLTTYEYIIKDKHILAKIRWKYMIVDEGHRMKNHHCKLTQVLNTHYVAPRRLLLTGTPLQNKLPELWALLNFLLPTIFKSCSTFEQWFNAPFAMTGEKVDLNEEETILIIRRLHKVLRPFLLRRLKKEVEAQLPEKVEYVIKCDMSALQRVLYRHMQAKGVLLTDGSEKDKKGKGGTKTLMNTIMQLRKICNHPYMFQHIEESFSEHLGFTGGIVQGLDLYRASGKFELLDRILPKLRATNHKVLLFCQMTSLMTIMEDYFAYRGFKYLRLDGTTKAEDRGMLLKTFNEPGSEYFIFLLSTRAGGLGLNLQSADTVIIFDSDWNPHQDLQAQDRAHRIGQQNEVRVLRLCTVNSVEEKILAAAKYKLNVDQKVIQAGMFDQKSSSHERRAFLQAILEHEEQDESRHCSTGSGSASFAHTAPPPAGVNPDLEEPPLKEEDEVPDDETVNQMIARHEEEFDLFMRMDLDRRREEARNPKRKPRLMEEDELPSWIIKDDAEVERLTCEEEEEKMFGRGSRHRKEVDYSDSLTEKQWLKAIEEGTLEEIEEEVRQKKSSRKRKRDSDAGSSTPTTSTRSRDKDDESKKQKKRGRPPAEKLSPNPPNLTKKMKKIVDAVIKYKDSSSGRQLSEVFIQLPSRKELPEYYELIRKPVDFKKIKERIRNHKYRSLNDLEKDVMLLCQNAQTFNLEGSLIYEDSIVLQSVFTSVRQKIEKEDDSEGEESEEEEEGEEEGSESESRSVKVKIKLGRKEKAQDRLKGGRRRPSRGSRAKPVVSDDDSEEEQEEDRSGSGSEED
How it was run: (§1)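 Imaging-based readout in SW1573: 20 h dosing, formaldehyde fixation, antibody staining for either remodeler, nuclear intensity per cell quantified. Values normalized to control degrader; floating-maximum fit.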

[2] = target: T2, BRM (Homo sapiens, UniProt P51531); experiment: HiBIT nanoluciferase complementation screen for BRM degraders; conditions: 18 hours, BRM-HiBIT KI Hela cells, luminescence normalized: DMSO only = 0%, no cells = −100%; for Median HiBiT activity 1 μM: compound 1 μM; for Median HiBiT activity 10 μM: compound 10 μM
T2 sequence (P51531 whole entry): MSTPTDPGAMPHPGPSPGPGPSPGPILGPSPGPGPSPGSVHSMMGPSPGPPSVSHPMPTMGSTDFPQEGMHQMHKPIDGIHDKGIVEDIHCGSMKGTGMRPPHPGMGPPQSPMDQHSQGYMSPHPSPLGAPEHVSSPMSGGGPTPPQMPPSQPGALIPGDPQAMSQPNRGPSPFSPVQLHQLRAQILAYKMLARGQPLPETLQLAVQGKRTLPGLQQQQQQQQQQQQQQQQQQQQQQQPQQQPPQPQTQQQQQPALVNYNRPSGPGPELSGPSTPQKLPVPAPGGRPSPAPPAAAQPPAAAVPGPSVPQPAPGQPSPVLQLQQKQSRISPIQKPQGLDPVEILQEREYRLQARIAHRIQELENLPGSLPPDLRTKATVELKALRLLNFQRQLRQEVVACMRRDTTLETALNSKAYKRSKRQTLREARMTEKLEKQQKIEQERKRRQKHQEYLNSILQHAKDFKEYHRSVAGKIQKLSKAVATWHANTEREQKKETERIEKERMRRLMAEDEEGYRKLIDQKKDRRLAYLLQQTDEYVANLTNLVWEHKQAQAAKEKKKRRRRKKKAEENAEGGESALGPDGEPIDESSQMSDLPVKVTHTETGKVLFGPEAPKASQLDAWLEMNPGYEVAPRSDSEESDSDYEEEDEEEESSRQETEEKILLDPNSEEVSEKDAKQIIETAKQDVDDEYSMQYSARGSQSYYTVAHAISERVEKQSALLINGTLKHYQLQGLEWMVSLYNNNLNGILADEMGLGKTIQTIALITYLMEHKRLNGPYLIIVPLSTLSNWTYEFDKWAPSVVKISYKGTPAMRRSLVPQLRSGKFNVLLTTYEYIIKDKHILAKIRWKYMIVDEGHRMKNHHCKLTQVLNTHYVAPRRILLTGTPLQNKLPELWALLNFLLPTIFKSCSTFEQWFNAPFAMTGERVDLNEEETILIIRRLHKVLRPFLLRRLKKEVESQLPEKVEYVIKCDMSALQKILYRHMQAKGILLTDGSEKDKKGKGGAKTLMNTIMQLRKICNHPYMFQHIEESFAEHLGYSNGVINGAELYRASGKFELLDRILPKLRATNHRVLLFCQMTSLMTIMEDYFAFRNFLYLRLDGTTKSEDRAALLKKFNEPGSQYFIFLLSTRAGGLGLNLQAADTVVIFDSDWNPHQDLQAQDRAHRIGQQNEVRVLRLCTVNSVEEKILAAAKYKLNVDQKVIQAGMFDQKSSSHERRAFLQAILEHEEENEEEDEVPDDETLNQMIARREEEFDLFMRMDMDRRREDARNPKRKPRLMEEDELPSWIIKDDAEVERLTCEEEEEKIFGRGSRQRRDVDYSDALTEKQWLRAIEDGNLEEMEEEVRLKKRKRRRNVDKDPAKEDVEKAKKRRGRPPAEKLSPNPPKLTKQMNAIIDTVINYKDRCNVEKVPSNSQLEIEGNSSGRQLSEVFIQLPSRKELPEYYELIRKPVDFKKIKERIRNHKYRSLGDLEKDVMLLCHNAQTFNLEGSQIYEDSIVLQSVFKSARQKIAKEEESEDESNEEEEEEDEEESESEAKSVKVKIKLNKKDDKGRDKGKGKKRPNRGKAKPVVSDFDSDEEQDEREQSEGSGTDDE
From the text: Example B-1: HiBIT Nanoluciferase Complementation Screen for BRM Degraders
To assess BRM degradation, compounds were screened for their effect of BRM levels using the HiBIT nanoluciferase complementation strategy developed at Promega. In brief, a HELA cell line that was genetically modified via CRISPR/CAS9 was used to fuse the HiBIT sequence at the 3′ end of BRM (BRM-HiBIT KI Hela). BRM protein levels were then detected using the Nano-Glo HiBIT lytic detection reagent (Promega).
The screened compounds were plated into a white 384-well plate at 10 μM and 1 μM in 25 nL DMSO using an Echo dispenser (Labcyte). BRM-HiBIT KI Hela cells were seeded in the compound plate at 5000 cell per well at 25 μl in DMEM growth media (containing 10% FBS, 1% Glutamax (GIBCO cat #31053-028), lx Penicillin-Streptomycin (ROCHE, cat #1107444001), 4.5 g/L D-Glucose, and no phenol red). After incubation with compounds for 18 hours at 37° C., cell viability was assessed by the addition of 5 μl Cell Titer-Fluor reagent (Promega). After 30 s of mixing on an orbital shaker, and 30 minutes incubation at 37° C., fluorescence was measured with an INFINITE F500 (Tecan) (380-400 nm excitation, 505 nm emission). Next, to assess BRM HiBIT levels, 30 μl of Nano-Glo HiBIT lytic detection reagent (Promega) containing 1:50 Nano-Glo HiBIT lytic substrate and 1:100 LgBIT protein per ml of lytic buffer was added. After shaking on an orbital shaker at 350 rpm for 10 minutes, luminescence was measured on the INFINITE F500 (Tecan). To assess compound effects, luminescence signal was normalized with the mean of wells treated with DMSO only set to 0% and the mean of wells containing no cells set to −100%. Note that, in Table 4, the “Compound Number” corresponds to that used in Table 1.

[3] = target: T2, BRM; experiment: Immunofluorescence assay for BRM degradation in SW1573 cells; set-up: treated overnight at 4° C. with either BRM primary antibody (Cell signaling Cat #11966) or BRG primary antibody; endogenous in cells; host or cells: SW1573; conditions: 20 hours incubation; for DC50: immunofluorescence mean nuclear signal, read-out: BRM IF Degradation IC50; for BRM IF Degradation Sinf (%): normalized to a known degrader control
How it was run: as §1

| Structure (SMILES) | DC50 [1] [µM] | Dmax [1] [%] | Median HiBiT activity 1 μM [2] [%] | Median HiBiT activity 10 μM [2] [%] | DC50 [3] [µM] | BRM IF Degradation Sinf (%) [3] |
| --- | --- | --- | --- | --- | --- | --- |
| Nc1nnc(-c2ccccc2O)cc1N1CC2CCC(C1)N2c1ccnc(C#CCN2CCCC2)c1 [Compound 2, 2-(6-amino-5-(8-(2-(3-(pyrrolidin-1-yl)prop-1-yn-1-yl)pyridin-4-yl)-3,8-diazabicyclo[3.2.1]octan-3-yl)pyridazin-3-yl)phenol] | < 0.01 | 30 to 70 | −73.6048 | −28.0898 | < 0.01 | E (E indicates −30%-−70%) |
| Nc1nnc(-c2ccccc2O)cc1N1CC2CCC(C1)N2c1ccnc(C#CC2CCCNC2)c1 (centres unmarked) [Compound 8, 2-(6-amino-5-(8-(2-(piperidin-3-ylethynyl)pyridin-4-yl)-3,8-diazabicyclo[3.2.1]octan-3-yl)pyridazin-3-yl)phenol] | > 0.1 |  | −51.6794 | −23.8415 | 0.01 to 0.1 | E (E indicates −30%-−70%) |
| CCN(CC)CC#Cc1cc(N2C3CCC2CN(c2cc(-c4ccccc4O)nnc2N)C3)ccn1 [Compound 5, 2-(6-amino-5-(8-(2-(3-(diethylamino)prop-1-yn-1-yl)pyridin-4-yl)-3,8-diazabicyclo[3.2.1]octan-3-yl)pyridazin-3-yl)phenol] | < 0.01 | 30 to 70 | −63.6385 | −31.0597 | < 0.01 | E (E indicates −30%-−70%) |
